Results on 1 compound are retold here after patent publication US20220023306A1, “USE OF A PPAR-DELTA AGONIST IN THE TREATMENT OF FATTY ACID OXIDATION DISORDERS (FAOD)” (Reneo Pharmaceuticals, Inc., priority 2019, published 2022).

Assay [1] relates to very long-chain acyl-CoA dehydrogenase (VLCAD). Kind of assay: VLCAD enzymatic activity in cultured fibroblasts from symptomatic VLCAD-deficient FAOD patients (ETF fluorescence reduction ACAD activity assay). Type of assay: cell-based, human. The note with it: cultured fibroblasts from symptomatic patients with VLCAD deficiency. The protocol:
Subjects. Skin biopsies for fibroblast culture are performed on a clinical basis with written informed consent from subjects and/or legal guardians. Fibroblast cells with mutations in any one of the genes and/or proteins associated with a fatty acid oxidation disorder (FAOD) ae obtained from patients' skin biopsies, while wild type (WT) fibroblast cells are obtained from healthy individuals.
Fibroblast cells, in some cases, are obtained from subjects with a confirmed diagnosis of a fatty acid oxidation disorder (FAOD) (e.g. MCAD, VLCAD, CPT1, CACT, CPT2, LCHAD, and/or mitochondrial TFP deficiencies or mutations) or they, in some cases, are purchased is available from commercial sources, e.g. from the Coriell Institute for Medical Research (403 Haddon Avenue, Camden, N.J. 08103).
Cell culture and treatments. Cells are grown in Dulbecco's Modified Eagle Medium (DMEM), Corning Life Sciences, Manassas, Va., containing high glucose levels or in DMEM devoid of glucose for 48-72 hr. Both media are supplemented with fetal bovine serum, glutamine, penicillin and/or streptomycin. In some experiments, fibroblasts are incubated with N-acetylcysteine, resveratrol, mitoQ, Trolox (a hydro-soluble analogue of vitamin E), or bezafibrate, prior to the analysis of parameters.
A PPARδ agonist compound is dissolved in phosphate buffer saline, PBS, as a stock solution. […]

The subject of assay [2] is PPARδ regulated genes (CPT1b, PGC1α). Kind of assay: expression of PPARδ regulated genes in vivo.
In another assay the target is T1, hPPARγ (Homo sapiens, UniProt P37231).
T1 construct: expressed in transfected cells; host or cells: HEK293
T1 sequence (P37231 238-503 limits assumed): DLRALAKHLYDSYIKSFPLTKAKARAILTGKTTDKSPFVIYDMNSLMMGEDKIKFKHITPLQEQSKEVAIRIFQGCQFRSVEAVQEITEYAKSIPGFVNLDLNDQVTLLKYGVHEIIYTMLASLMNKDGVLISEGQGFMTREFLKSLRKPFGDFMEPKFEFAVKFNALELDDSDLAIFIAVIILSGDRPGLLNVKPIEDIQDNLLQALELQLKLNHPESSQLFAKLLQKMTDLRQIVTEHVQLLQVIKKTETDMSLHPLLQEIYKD
The experiment in a line: PPAR transient transactivation assay, hPPARγ. Type of assay: cell-based. As for the experimental part:
“Activation” herein is defined as the abovementioned downstream response, which in the case of PPAR's is gene transcription. Gene transcription, in some cases, is measured indirectly as downstream production of proteins reflective of the activation of the particular PPAR subtype under study. Alternatively, an artificial reporter construct, in some cases, is employed to study the activation of the individual PPAR's expressed in cells. The ligand binding domain of the particular receptor to be studied, in some embodiments, is fused to the DNA binding domain of a transcription factor, which produces convenient laboratory readouts, such as the yeast GAL4 transcription factor DNA binding domain. The fusion protein, in some cases, is transfected into a laboratory cell line along with a Gal4 enhancer, which effects the expression of the luciferase protein. When such a system is transfected into a laboratory cell line, binding of a receptor agonist to the fusion protein will result in light emission.
The PPAR transient transactivation assay, in some cases, is based on transient transfection into human HEK293 cells of two plasmids encoding a chimeric test protein and a reporter protein respectively. […] The amount of luciferase protein is measured by light emission after addition of the appropriate substrate. […]

Each structure is given as a SMILES string.

As to `Cc1cc(OC/C=C(/c2ccc(F)cc2)c2ccc(C#CCN3CCOCC3)cc2)ccc1OCC(=O)O` [Compound 1, (E)-[4-[3-(4-Fluorophenyl)-3-[4-[3-(morpholin-4-yl)propynyl]phenyl]allyloxy]-2-methyl-phenoxy]acetic acid], in assay [1], the VLCAD enzymatic activity entry was “increased”. For the same compound, in assay [2], the “expression pattern of CPT1b (fatty acid metabolism)” value is on record as “altered the expression patterns” and the “expression pattern of PGC1α (mitochondrial biogenesis)” value is given as “altered the expression patterns”. Besides, on hPPARγ, the “activity on PPARγ in transactivation assays” value is “negligible activity” and the “type of agonism on PPARγ” value is “partial agonist”.
